From PubChem BioAssay (NCI) come the findings set out here.

“And” between values parts separate entries of the source, which are not always exact repeats. Equal values may be shown once.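 Five concentrations, 48 hours, 96-well plates. The concentration for 50% growth inhibition is given as GI50. TGI: concentration producing complete growth inhibition.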

Some test systems named below: 786-0 renal; HCC-2998 colon; MDA-MB-231 breast; NCI-H23 lung; OVCAR-8 ovarian; SK-MEL-28 melanoma; SN12C renal; SNB-19 CNS; UACC-257 melanoma; UACC-62 melanoma.
What all share (assay): inhibition of tumour cell growth, NCI panel, 48 h

`COc1ccc(-c2ccncc2)cc1C(N)=O`: the GI50 in the experiment with 786-0 renal, in the experiment on HCC-2998 colon, in the experiment on MDA-MB-231 breast, in the experiment on NCI-H23 lung, with OVCAR-8 ovarian and in the experiment on SK-MEL-28 melanoma was more than 25 µM each time. In addition, the GI50 in the experiment with SN12C renal, with SNB-19 CNS, in the experiment on UACC-257 melanoma and in the experiment on UACC-62 melanoma was more than 25 µM each time. The TGI in the experiment with 786-0 renal, in the experiment on HCC-2998 colon, in the experiment on MDA-MB-231 breast, in the experiment with NCI-H23 lung, in the experiment on OVCAR-8 ovarian and with SK-MEL-28 melanoma was more than 25 µM in each case. Further, the TGI with SN12C renal, in the experiment with SNB-19 CNS, in the experiment with UACC-257 melanoma and in the experiment on UACC-62 melanoma was more than 25 µM throughout.

With `O=[N+]([O-])c1cc(Cl)c2[nH]c3c(Cl)cc([N+](=O)[O-])cc3c2c1`, the GI50 in the experiment with 786-0 renal is 0.294 µM; with HCC-2998 colon, 0.331 µM; in the experiment on MDA-MB-231 breast, 0.482 µM; in the experiment on NCI-H23 lung, 0.213 µM; in the experiment with OVCAR-8 ovarian, 0.253 µM; in the experiment with SK-MEL-28 melanoma it was 0.47 µM. Also, the GI50 in the experiment on SN12C renal is 0.296 µM; in the experiment on SNB-19 CNS, 0.357 µM; in the experiment on UACC-257 melanoma, 0.159 µM; in the experiment with UACC-62 melanoma it was 0.247 µM. Moreover, the TGI was 16.7 µM with 786-0 renal; more than 100 µM in the experiment with HCC-2998 colon; 8.89 µM in the experiment with MDA-MB-231 breast; 28.2 µM in the experiment with NCI-H23 lung; 1.23 µM in the experiment with OVCAR-8 ovarian; more than 100 µM in the experiment on SK-MEL-28 melanoma. For the same molecule, the TGI with SN12C renal is more than 100 µM; in the experiment on SNB-19 CNS it was more than 100 µM; with UACC-257 melanoma, 0.996 µM; with UACC-62 melanoma it was more than 100 µM.

For the molecule `NCCSSCCN`, the TGI in the experiment with 786-0 renal, with HCC-2998 colon, in the experiment on MDA-MB-231 breast, in the experiment on NCI-H23 lung, in the experiment with OVCAR-8 ovarian and with SK-MEL-28 melanoma was more than 100 µM each time. Also, the TGI in the experiment on SN12C renal, in the experiment with SNB-19 CNS, in the experiment with UACC-257 melanoma and in the experiment on UACC-62 melanoma was more than 100 µM each time. In addition, in the experiment with UACC-257 melanoma, the GI50 is > 100 µM and 18.2 µM.

Take `CC[n+]1oc(C(=O)c2ccc(Cl)cc2)c(-c2ccccc2)c1-c1ccccc1.[Cl][Fe]([Cl])([Cl])[Cl]`: the GI50 in the experiment on 786-0 renal is 91.8 µM; with HCC-2998 colon, 60.8 µM; in the experiment on MDA-MB-231 breast, 36.5 µM; in the experiment on NCI-H23 lung, 45.7 µM; with OVCAR-8 ovarian, 45.5 µM; with SK-MEL-28 melanoma, 38 µM. The GI50 with SN12C renal was 83.5 µM; in the experiment on SNB-19 CNS it was more than 100 µM; in the experiment with UACC-62 melanoma, 63.8 µM. Also, the TGI in the experiment with 786-0 renal, in the experiment with HCC-2998 colon, with MDA-MB-231 breast, with NCI-H23 lung, in the experiment on OVCAR-8 ovarian and in the experiment with SK-MEL-28 melanoma was more than 100 µM throughout. The TGI is more than 100 µM in the experiment on SN12C renal, more than 100 µM in the experiment with SNB-19 CNS, 15.5 µM in the experiment with UACC-257 melanoma and more than 100 µM in the experiment with UACC-62 melanoma.

Regarding `Cn1c(-c2c(N)n(Nc3cccc(Cl)c3)c3nc(C#N)c(C#N)nc23)nc2ccccc21`, the GI50 is 8.91 µM with 786-0 renal; 6.95 µM in the experiment with HCC-2998 colon; 6.47 µM in the experiment on MDA-MB-231 breast; 2.88 µM in the experiment with NCI-H23 lung; 7.56 µM in the experiment on OVCAR-8 ovarian; 6.99 µM in the experiment on SK-MEL-28 melanoma. For the same molecule, the GI50 in the experiment with SN12C renal is 5.15 µM; in the experiment with SNB-19 CNS, 10.7 µM; in the experiment with UACC-257 melanoma it was 6.18 µM; in the experiment on UACC-62 melanoma, 4.59 µM. Moreover, the TGI was determined as 37.3 µM in the experiment on 786-0 renal; 16.9 µM with HCC-2998 colon; 17.7 µM with MDA-MB-231 breast; 13.2 µM in the experiment on NCI-H23 lung; 26.4 µM in the experiment with OVCAR-8 ovarian; 24.4 µM in the experiment with SK-MEL-28 melanoma. Further, the TGI in the experiment on SN12C renal worked out at 12.5 µM; in the experiment with SNB-19 CNS, 24.3 µM; in the experiment on UACC-257 melanoma, 15.9 µM; in the experiment with UACC-62 melanoma, 14.9 µM.

Turning to `COc1cc2ncn(-c3cc(OCc4ccccc4C(F)(F)F)c(C(=O)N(C)C)s3)c2cc1OC`, the GI50 was more than 25 µM in the experiment on 786-0 renal; more than 25 µM in the experiment with HCC-2998 colon; 10.9 µM in the experiment with MDA-MB-231 breast; more than 25 µM in the experiment with NCI-H23 lung; 17.7 µM in the experiment with OVCAR-8 ovarian; more than 25 µM in the experiment with SK-MEL-28 melanoma. The GI50 in the experiment with SN12C renal was 24.6 µM; in the experiment on SNB-19 CNS, more than 25 µM; with UACC-257 melanoma it was more than 25 µM; in the experiment on UACC-62 melanoma, 21.6 µM. In addition, the TGI in the experiment with 786-0 renal, in the experiment on HCC-2998 colon, with MDA-MB-231 breast, with NCI-H23 lung, with OVCAR-8 ovarian and in the experiment on SK-MEL-28 melanoma was more than 25 µM in each case. The TGI in the experiment on SN12C renal, with SNB-19 CNS, with UACC-257 melanoma and in the experiment on UACC-62 melanoma was more than 25 µM throughout.

For the molecule `CS(=O)(=O)CCNCc1cc(-c2cc3c(Nc4ccc(OCc5cccc(F)c5)c(Cl)c4)ncnc3s2)cs1`, the GI50 was 6.44 µM in the experiment with 786-0 renal; 6.59 µM with HCC-2998 colon; 6.15 µM with MDA-MB-231 breast; 20.5 µM in the experiment on NCI-H23 lung; 16.5 µM in the experiment on OVCAR-8 ovarian; 12.5 µM with SK-MEL-28 melanoma. Further, the GI50 with SN12C renal was 15.3 µM; with SNB-19 CNS, 24.6 µM; with UACC-257 melanoma it was 12.9 µM; in the experiment on UACC-62 melanoma, 7.12 µM. For the same molecule, the TGI in the experiment on 786-0 renal was more than 18.7 µM; in the experiment with HCC-2998 colon, 21.5 µM; in the experiment with MDA-MB-231 breast, 19.9 µM; in the experiment with NCI-H23 lung, more than 25 µM; with OVCAR-8 ovarian, more than 25 µM; with SK-MEL-28 melanoma it was more than 25 µM. The TGI in the experiment with SN12C renal is more than 25 µM; with SNB-19 CNS, more than 25 µM; with UACC-257 melanoma, more than 25 µM; in the experiment with UACC-62 melanoma it was 24.5 µM.

As for `COc1ccc2c(=O)cc(-c3ccccc3)[nH]c2c1`, the GI50 was 4.56 µM in the experiment with 786-0 renal; 1.27 µM with HCC-2998 colon; 1.92 µM in the experiment with MDA-MB-231 breast; 1.25 µM in the experiment with NCI-H23 lung; 2.64 µM in the experiment with OVCAR-8 ovarian; 7.84 µM with SK-MEL-28 melanoma. Further, the GI50 in the experiment with SN12C renal was 3.16 µM; with SNB-19 CNS, 1.75 µM; in the experiment with UACC-257 melanoma it was 0.335 µM; in the experiment with UACC-62 melanoma, 0.431 µM. Also, the TGI was more than 100 µM in the experiment on 786-0 renal; 8.9 µM in the experiment on HCC-2998 colon; more than 100 µM in the experiment with MDA-MB-231 breast; more than 100 µM with NCI-H23 lung; more than 46.6 µM in the experiment with OVCAR-8 ovarian; more than 100 µM in the experiment on SK-MEL-28 melanoma. The TGI in the experiment with SN12C renal, with SNB-19 CNS, with UACC-257 melanoma and in the experiment on UACC-62 melanoma was more than 100 µM throughout.
